Test results taken from patent publication US20230233690A1, “ANDROGEN RECEPTOR PROTEIN DEGRADERS” (THE REGENTS OF THE UNIVERSITY OF MICHIGAN, priority 2020, published 2023).

Target: T1, AR protein (Homo sapiens, UniProt P10275)
T1 construct: endogenous in cells; host or cells: VCaP
T1 sequence (P10275 1-920): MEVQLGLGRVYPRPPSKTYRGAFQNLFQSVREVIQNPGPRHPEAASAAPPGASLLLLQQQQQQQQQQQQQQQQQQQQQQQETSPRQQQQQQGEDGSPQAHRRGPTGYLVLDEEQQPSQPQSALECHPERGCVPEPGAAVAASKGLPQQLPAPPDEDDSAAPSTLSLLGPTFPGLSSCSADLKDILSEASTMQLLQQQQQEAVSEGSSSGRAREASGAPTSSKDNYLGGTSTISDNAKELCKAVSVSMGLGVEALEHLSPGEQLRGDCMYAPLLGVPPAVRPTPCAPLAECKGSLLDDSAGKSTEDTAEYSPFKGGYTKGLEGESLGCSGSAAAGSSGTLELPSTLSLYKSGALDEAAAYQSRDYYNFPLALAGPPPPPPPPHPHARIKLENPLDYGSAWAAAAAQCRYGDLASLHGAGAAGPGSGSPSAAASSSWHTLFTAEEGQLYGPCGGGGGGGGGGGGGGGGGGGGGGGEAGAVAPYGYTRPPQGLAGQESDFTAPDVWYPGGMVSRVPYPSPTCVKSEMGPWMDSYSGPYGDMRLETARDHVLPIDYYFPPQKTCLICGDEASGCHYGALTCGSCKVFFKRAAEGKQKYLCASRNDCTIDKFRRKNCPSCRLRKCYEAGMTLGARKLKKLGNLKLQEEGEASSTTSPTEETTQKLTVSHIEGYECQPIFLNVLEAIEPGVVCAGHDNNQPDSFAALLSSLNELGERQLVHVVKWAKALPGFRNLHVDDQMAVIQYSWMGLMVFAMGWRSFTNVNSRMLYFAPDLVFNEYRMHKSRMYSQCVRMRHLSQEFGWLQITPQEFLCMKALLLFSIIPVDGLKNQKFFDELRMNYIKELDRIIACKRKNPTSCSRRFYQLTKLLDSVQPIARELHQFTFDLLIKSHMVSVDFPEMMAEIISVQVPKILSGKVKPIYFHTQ
Assay: Western blotting of AR protein degradation in VCaP cells
Type: cell-based
Conditions: for AR protein degradation VCap 100 nM / AR protein degradation VCap 10 nM: 24 hr treatment
Method: The treated cells were lysed with RIPA buffer. […] GAPDH was used as a loading control.
Bands were quantified with ImageJ software. The relative numbers of each band obtained from normalization with its corresponding GAPDH level were compared with Prism 8 software. The DC50 values were produced from Prism 8, and the DC90 values were calculated with an equation=Bottom+(Top−Bottom)/(1+10^((Log EC50−X)*HillSlope) based on DC50 and Hillslope values.

Row | SMILES | % AR protein degradation in VCaP Cells (0.001 μM) | % AR protein degradation in VCaP Cells (0.01 μM) | % AR protein degradation in VCaP Cells (0.1 μM) | % AR protein degradation in VCaP Cells (1 μM) | AR protein degradation VCap 100 nM | AR protein degradation VCap 10 nM
1 | N#Cc1ccc(O[C@H]2CC[C@H](NC(=O)c3ccc4c(c3)CN(CC3CCN(c5ccc6c(c5)C(=O)N(C5CCC(=O)NC5=O)C6=O)CC3)C4)CC2)cc1Cl (stereo partly drawn) [compound 8] |  |  |  |  | A (>90% degradation (24 hr treatment)) | 
2 | C[C@H]1C[C@H](NC(=O)c2ccc(N3CCN(CC4CCN(c5ccc6c(c5)C(=O)N(C5CCC(=O)NC5=O)C6=O)CC4)CC3)cc2)CC[C@H]1Oc1ccc(C#N)c(Cl)c1 (stereo partly drawn) [compound 24] |  |  |  |  | A (>90% degradation (24 hr treatment)) | A (>90% degradation (24 hr treatment))
3 | CN(c1ccc(C#N)c(Cl)c1)C1CCC(NC(=O)c2ccc(C#CC3CCN(C4CCN(c5ccc6c(c5)C(=O)N(C5CCC(=O)NC5=O)C6=O)CC4)CC3)cc2)CC1 (stereo not drawn) [compound 32] |  |  |  |  | A (>90% degradation (24 hr treatment)) | A (>90% degradation (24 hr treatment))
4 | CN(c1ccc(C#N)c(Cl)c1)[C@H]1CC[C@H](NC(=O)c2ccc(N3CCN(C4CN(c5ccc6c(c5)C(=O)N(C5CCC(=O)NC5=O)C6=O)C4)CC3)cc2)CC1 (stereo partly drawn) [Cpd. No. 31, N-((1r,4r)-4-((3-chloro-4-cyanophenyl)(methyl)amino)cyclohexyl)-4-(4-(1-(2-(2,6-dioxopiperidin-3-yl)-1,3-dioxoisoindolin-5-yl)azetidin-3-yl)piperazin-1-yl)benzamide] |  |  |  |  | A (>90% degradation (24 hr treatment)) | A (>90% degradation (24 hr treatment))
5 | N#Cc1ccc(N[C@H]2CC[C@H](NC(=O)c3ccc(N4CCC(N5CCN(c6ccc7c(c6)C(=O)N(C6CCC(=O)NC6=O)C7=O)CC5)CC4)cc3)CC2)cc1Cl (stereo partly drawn) [compound 229, N-((1r,4r)-4-((3-chloro-4-cyanophenyl)amino)cyclohexyl)-4-(4-(4-(2-(2,6-dioxopiperidin-3-yl)-1,3-dioxoisoindolin-5-yl)piperazin-1-yl)piperidin-1-yl)benzamide] | 51% | 62% | 52% | 43% |  | 
6 | N#Cc1ccc(O[C@H]2CC[C@H](NC(=O)c3ccc(N4CCN(C5CCN(c6ccc7c(c6)C(=O)N(C6CCC(=O)NC6=O)C7=O)CC5)CC4)cc3)CC2)cc1Cl (stereo partly drawn) [Cpd. No. 21, N-((1r,4r)-4-(3-chloro-4-cyanophenoxy)cyclohexyl)-4-(4-(1-(2-(2,6-dioxopiperidin-3-yl)-1,3-dioxoisoindolin-5-yl)piperidin-4-yl)piperazin-1-yl)benzamide] |  |  |  |  | A (>90% degradation (24 hr treatment)) | A (>90% degradation (24 hr treatment))
7 | N#Cc1ccc(N[C@H]2CC[C@H](NC(=O)c3ccc(N4CCN(C5CN(c6ccc7c(c6)C(=O)N(C6CCC(=O)NC6=O)C7=O)C5)CC4)cc3)CC2)cc1Cl (stereo partly drawn) [Cpd. No. 28, N-((1r,4r)-4-((3-chloro-4-cyanophenyl)amino)cyclohexyl)-4-(4-(1-(2-(2,6-dioxopiperidin-3-yl)-1,3-dioxoisoindolin-5-yl)azetidin-3-yl)piperazin-1-yl)benzamide] |  |  |  |  | A (>90% degradation (24 hr treatment)) | A (>90% degradation (24 hr treatment))
8 | N#Cc1ccc(N[C@H]2CC[C@H](NC(=O)c3ccc(N4CCN(CC5CCN(c6ccc7c(c6)C(=O)N(C6CCC(=O)NC6=O)C7=O)CC5)CC4)cc3)CC2)cc1Cl (stereo partly drawn) [compound 27] |  |  |  |  | A (>90% degradation (24 hr treatment)) | A (>90% degradation (24 hr treatment))
9 | CC(O)(CS(=O)(=O)c1ccc(N2CCN(C3CCN(c4ccc5c(c4)C(=O)N(C4CCC(=O)NC4=O)C5=O)CC3)CC2)cc1)C(=O)Nc1ccc(C#N)c(C(F)(F)F)c1 (stereo not drawn) [compound 241, N-(4-cyano-3-(trifluoromethyl)phenyl)-3-((4-(4-(1-(2-(2,6-dioxopiperidin-3-yl)-1,3-dioxoisoindolin-5-yl)piperidin-4-yl)piperazin-1-yl)phenyl)sulfonyl)-2-hydroxy-2-methylpropanamide] | 7% | 13% | −2% | 27% |  | 
10 | C[C@H]1C[C@@H](NC(=O)c2ccc(N3CCN(CC4CCN(c5ccc6c(c5)C(=O)N(C5CCC(=O)NC5=O)C6=O)CC4)CC3)cc2)CC[C@@H]1Oc1ccc(C#N)c(Cl)c1 (stereo partly drawn) [Cpd. No. 23] |  |  |  |  | A (>90% degradation (24 hr treatment)) | A (>90% degradation (24 hr treatment))
11 | N#Cc1ccc(O[C@H]2CC[C@H](NC(=O)c3ccc(N4CCN(CCCCNc5ccc6c(c5)C(=O)N(C5CCC(=O)NC5=O)C6=O)CC4)cc3)CC2)cc1Cl (stereo partly drawn) [compound 220, N-((1r,4r)-4-(3-chloro-4-cyanophenoxy)cyclohexyl)-4-(4-(4-((2-(2,6-dioxopiperidin-3-yl)-1,3-dioxoisoindolin-5-yl)amino)butyl)piperazin-1-yl)benzamide] | 18% | 60% | 80% | 62% |  | 

Further lines, results first:

Row | % AR protein degradation in VCaP Cells (0.001 μM) | % AR protein degradation in VCaP Cells (0.01 μM) | % AR protein degradation in VCaP Cells (0.1 μM) | % AR protein degradation in VCaP Cells (1 μM) | AR protein degradation VCap 100 nM | AR protein degradation VCap 10 nM | SMILES
12 | 12% | 21% | 51% | 47% |  |  | N#Cc1ccc(O[C@H]2CCC[C@H](NC(=O)c3ccc(N4CCC(N5CCN(c6ccc7c(c6)C(=O)N(C6CCC(=O)NC6=O)C7=O)CC5)CC4)cc3)CCC2)cc1Cl (stereo partly drawn) [compound 228, N-((1r,5r)-5-(3-chloro-4-cyanophenoxy)cyclooctyl)-4-(4-(4-(2-(2,6-dioxopiperidin-3-yl)-1,3-dioxoisoindolin-5-yl)piperazin-1-yl)piperidin-1-yl)benzamide]
13 | 59% | 82% | 82% | 79% |  |  | N#Cc1ccc(O[C@H]2CC[C@H](NC(=O)c3ccc(NCCCCCNc4ccc5c(c4)C(=O)N(C4CCC(=O)NC4=O)C5=O)cc3)CC2)cc1Cl (stereo partly drawn) [compound 211, N-((1r,4r)-4-(3-chloro-4-cyanophenoxy)cyclohexyl)-4-((5-((2-(2,6-dioxopiperidin-3-yl)-1,3-dioxoisoindolin-5-yl)amino)pentyl)amino)benzamide]
14 | 17% | 40% | 62% | 38% |  |  | N#Cc1ccc(O[C@H]2CC[C@H](NC(=O)c3ccc(NCCCCCCCNc4ccc5c(c4)C(=O)N(C4CCC(=O)NC4=O)C5=O)cc3)CC2)cc1Cl (stereo partly drawn) [compound 213, N-((1r,4r)-4-(3-chloro-4-cyanophenoxy)cyclohexyl)-4-((7-((2-(2,6-dioxopiperidin-3-yl)-1,3-dioxoisoindolin-5-yl)amino)heptyl)amino)benzamide]
15 | −11% | −9% | 1% | 22% |  |  | N#Cc1ccc(O[C@H]2CC[C@H](NC(=O)c3ccc(NCCCCCCCCCCNc4ccc5c(c4)C(=O)N(C4CCC(=O)NC4=O)C5=O)cc3)CC2)cc1Cl (stereo partly drawn) [compound 216, N-((1r,4r)-4-(3-chloro-4-cyanophenoxy)cyclohexyl)-4-((10-((2-(2,6-dioxopiperidin-3-yl)-1,3-dioxoisoindolin-5-yl)amino)decyl)amino)benzamide]
16 |  |  |  |  | A (>90% degradation (24 hr treatment)) | A (>90% degradation (24 hr treatment)) | C[C@H]1C[C@@H](NC(=O)c2ccc(N3CCN(C4CN(c5ccc6c(c5)C(=O)N(C5CCC(=O)NC5=O)C6=O)C4)CC3)cc2)CC[C@@H]1Oc1ccc(C#N)c(Cl)c1 (stereo partly drawn) [compound 26]
17 | 17% | 22% | 51% | 34% |  |  | N#Cc1ccc(O[C@H]2CC[C@H](NC(=O)c3ccc(N4CCN(CCCCCNc5ccc6c(c5)C(=O)N(C5CCC(=O)NC5=O)C6=O)CC4)cc3)CC2)cc1Cl (stereo partly drawn) [compound 221, N-((1r,4r)-4-(3-chloro-4-cyanophenoxy)cyclohexyl)-4-(4-(5-((2-(2,6-dioxopiperidin-3-yl)-1,3-dioxoisoindolin-5-yl)amino)pentyl)piperazin-1-yl)benzamide]
18 |  |  |  |  | A (>90% degradation (24 hr treatment)) | A (>90% degradation (24 hr treatment)) | C[C@H]1C[C@@H](NC(=O)c2ccc(N3CCN(C4CCN(c5ccc6c(c5)C(=O)N(C5CCC(=O)NC5=O)C6=O)CC4)CC3)cc2)CC[C@@H]1Oc1ccc(C#N)c(Cl)c1 (stereo partly drawn) [compound 25]
